“Also recorded” adds a separate entry of the source. Read-outs that look alike come from different tables or passages of the source.
Experiments:
Trip10 promoter = assay: Methylation-specific PCR (MSP) of Trip10; assay type: cell-based; conditions: MCF7 cells, 7.5 or 30 μM, 5 days of treatment
Description: (§1) Cell culture and drug treatment. […] 5-Aza and procainamide were purchased from Sigma-Aldrich. […] Control cells received DMSO vehicle.
Bisulfite conversion. Genomic DNA (0.5 μg) was bisulfite-converted by the EZ DNA Methylation Kit (Zymo) by following the manufacturer's instructions.
qMSP. Bisulfite converted DNAs were PCR-amplified by using appropriate PCR primers. Universal methylated DNAs (Millipore) were used as positive control. Col2A1 was used as a loading control and to amplify the serial diluted (1/10, 1/100 and 1/1000) bisulfite-converted universal methylated DNAs to generate the standard curve for quantization in real time PCR machine (Bio-Rad, iQ5). The methylation percentage was calculated as [(Intensity of Amplifications by Trip10 MSP primer set)×100]/(Intensity of Amplifications by Col2A1 MSP primer set) (%). The qMSP was performed in a 25 μL, of reaction mixture containing 4 μL of template (bisulfate treated DNA), 2 μL of primer pair (2.5 μM), 12.5 μL of 2× reaction buffer (SYBR Green real time PCR Master Mix, Toyobo), and 6.5 μL of H2O.

GSTp1 = assay: Methylation-specific PCR (MSP) of GSTp1; assay type: cell-based; conditions: MCF7 cells, 7.5 or 30 μM, 5 days of treatment
[1] = tested on: Trip10 promoter methylation (EGFP expression) in MCF7 cells; conditions: for inhibition of EGFP expression (DNA demethylation) in library screening: each compound at 7.5 μM, MCF7 reporter cells; for EGFP expression levels relative to DMSO control: transfected MCF7 cells, different concentrations, 5-day treatment, fluorescence microscopy
MCF7 cells [2] = tested on: MCF7 cells
Description: (§2) MCF7 breast cancer cells, obtained from American Type Culture Collection, were grown in Minimal Essential Medium (MEM; Invitrogen), supplemented with 10% FBS, 2 mM L-glutamine, and 100 μg/ml penicillin/streptomycin. Cells were cultured at 37° C. in a humidified incubator containing 5% CO2. Medium changes were performed twice weekly and cell passages were performed at 90% confluence. To maintain the two-component constructs in MCF7 cells, 200 μg/mL of hygromycin B (Invitrogen) and 500 μg/mL of Geneticin (G418, Calbiochem) were included in culture medium. 5-Aza and procainamide were purchased from Sigma-Aldrich. Compounds being tested were dissolved in DMSO as stock solutions, and added to culture medium with final DMSO concentrations of 0.3% and 1.2% (v/v) for 7.5 μM and 30 μM of testing drugs, respectively. Control cells received DMSO vehicle. During the 5-day treatment period, medium was changed on the third day of treatment along with the addition of 17β-estradiol (E2, 10 ng/ml).
(§3) Cell viability was assessed using MTT [3-(4,5-dimethylthiazol-2-yl)-2,5-diphenyl-2H-tetrazolium bromide, Sigma-Aldrich) in six replicates. MCF7 cells were seeded at 4,000 cells per well in 96-well plates, and treated with test agents at different concentrations. […] Reduced MTT was solubilized in 200 μl/well of DMSO for determination of absorbance of 595 nm using a microplate reader.

[3] = tested on: EGFP expression in MCF7 cells; assay: Western blot analysis of EGFP expression; assay type: cell-based; conditions: 7.5 μM, 5 days
Description: as §1
Western blotting. Equal amounts of protein in cell lysates were separated in 10% SDS polyacrylamide gels and then transblotted to nitrocellulose membranes. After blocking with non-fat milk, the membrane was washed and incubated with antibodies against GFP (Abeam) or (β-actin (Sigma-Aldrich). The membrane was washed, and then incubated with anti-rabbit immunoglobulin G-horseradish peroxidase. After final wash, the proteins were visualized by enhanced chemiluminescence. Immunoblotting data were analyzed by NIH Image.
In another set of experiment, cells were treated with 7.5 μM of candidate drugs for 5 days, then the cell lysates were harvested and subjected to Western blot. […] The inconsistence between the Western blot result versus the ELISA/images is not immediately clear. Results obtained from ELISA and Western blot confirmed that IM25 is an effective demethylation agent in inhibiting EGFP expression.

[4] = tested on: EGFP expression in MCF7 cells; assay: GFP ELISA of EGFP expression in the two-component reporter system; assay type: cell-based
Description: as §1
ELISA. Enzyme-linked immunosorbent assay (ELISA) was performed using the GFP ELISA kit (Cell Biolabs, San Diego, Calif.) according to the manufacture's instruction.

[5] = tested on: genome-wide methylation in MCF7 cells; assay: Differential Methylation Hybridization (DMH) array, genome-wide methylation; assay type: cell-based
Description: Differential Methylation Hybridization (DMH) Array. DMH was performed according to a reported procedure. Yan et al., J Nutr, 132(8 Suppl): p. 2430S-2434S (2002). Amplicons prepared from control (vehicle-treated) MCF7 cells were labeled with Cy5 and the amplicons prepared from drug-treated cells were labeled with Cy3. Labeled DNAs were co-hybridized onto 244K Agilent promoter array. Array hybridization results were normalized with LOWESS and a cutoff of 4 folds was used.
Statistics. ELISA and MTT results were analyzed by F-test. Significant demethylated loci were confirmed by ANOVA from DMH results. Linear regression was used to deduce the global methylation states before and after the demethylation agent treatment.

cancer cell growth = conditions: Lee et al., J. Biol. Chem. 280 (2005); cited from earlier work
MCF7 cells [6] = assay: MTT cell viability assay; conditions: 5-day treatment, dose range
Description: as §2, §3

SMILES	methylation level of Trip10 (Trip10 promoter)	methylation level of GSTp1 (GSTp1)	inhibition of EGFP expression (DNA demethylation) in library screening [1]	morphological changes, light microscopy (Vis) [1]	EGFP expression levels relative to DMSO control [1]	suppression of MCF7 cell viability (MCF7 cells [2])	protein level of EGFP [3]	demethylation potency in terms of inhibiting the EGFP expression [4]	global (genome-wide) demethylation ([5]; MCF7 cells, 7.5 μM)	more demethylated loci than after 5-Aza treatment ([5]; out of 244K target loci in Agilent array, significant by ANOVA)	concentration required to be effective in DNA demethylation in suppressing cancer cell growth (cancer cell growth) [µM]	suppression of MCF7 cell viability (MCF7 cells [6])
COc1ccc(O)c(C(C)=O)c1 [CI-4-1]	decreases the methylation level of both genes, but to a lesser extent; also recorded: weaker effect in demethylating Trip10 promoter	decreases the methylation level of both genes, but to a lesser extent; also recorded: significantly reduced the methylation level of GSTp1	high activity									
Nc1ncn([C@H]2C[C@H](O)[C@@H](CO)O2)c(=O)n1 [Compound 5-Aza, 5-aza-2′-deoxycytidine]	weaker effect in demethylating Trip10 promoter	significantly reduced the methylation level of GSTp1		did not cause morphological changes	dose-dependent, repressive effects on EGFP expression levels	did not cause morphological changes [light microscopy (Vis)] or suppression of cell viability						
O=S(=O)(c1ccc(Br)cc1)N1CCNCC1 [IM9]							significantly inhibited					
COc1ccc(S(=O)(=O)N2CCNCC2)cc1OC [IM25]	greatest potency in facilitating the demethylation of both Trip10 and GSTp1; also recorded: weaker effect in demethylating Trip10 promoter	greatest potency in facilitating the demethylation of both Trip10 and GSTp1; also recorded: significantly reduced the methylation level of GSTp1	high activity				substantially suppressed	greater demethylation potency than 5-Aza	able to cause global demethylation in MCF7 cells	5,506 loci		
CCN(CC)CCNC(=O)c1ccc(N)cc1 [procainamide]	weaker effect in demethylating Trip10 promoter	significantly reduced the methylation level of GSTp1		did not cause morphological changes	dose-dependent, repressive effects on EGFP expression levels						≥ 50	did not cause morphological changes [light microscopy (Vis)] or suppression of cell viability
